We go through one molecule from patent publication US12594293B2, “Use of 6-thio-dG to treat therapy-resistant telomerasepositive pediatric brain tumors” (The Board of Regents of The University of Texas System, priority 2018, dated 2026).

Type in all cases: cell-based, human
Assay [1] concerns MB004 cells. As to the kind of experiment: Apoptosis, cleaved caspase-3. The following applies: 3 μM for 4 or 7 days; data not shown. As for the experimental part:
(§1) Immunofluorescence and telomere FISH assay. Cells were fixed with 4% paraformaldehyde (PFA) for 15 minutes. Cells were then washed, permeabilized with 0.5% Triton-X-100 in PBS, blocked with 5% donkey serum and 0.3% Triton X-100 in TBS and incubated with primary antibodies against γH2A.X (1:500, rabbit), or cleaved caspase-3 (1:400, rabbit) (Cell Signaling); and/or TRF2 (1:200) (Mouse; NOVUS), as applicable, for overnight followed by TBST wash (×3) next day. Corresponding secondary antibodies were added (Alexa-Fluor 488- or 594-conjugated donkey anti-rabbit, or anti-mouse (1:500) (Jackson ImmunoResearch) for 1 hour and washed with TBS (×3) before mounting. For telomere-FISH, fixed and permeabilized cells were dehydrated with a graded ethanol concentration series, air-dried and covered with hybridization solution (70% formamide, 0.5% Blocking Reagent (Roche Diagnostics) diluted in 100 mM maleic acid and 150 mM sodium chloride, and 10 mM Tris (pH 7.5)) with 300 ng/mL PNA(CCCTAA)3-Cy3 (SEQ ID NO: 1) (Biosynthesis, USA), and denatured for 6 minutes at 84° C. followed by hybridization for at least two hours at room temperature. Cells were washed three times with 70% formamide and 10 mM Tris (pH 7.5) and three times with TBS. […]
(§2) Western blot. […] Band intensities were quantified using ImageJ software (Ver. 1.49u, NIH, USA).

Assay [2] deals with CCHMC-DIPG-1 cells. As to the kind of experiment: Apoptosis, cleaved caspase-3. The note with it: 3 μM for 4 or 7 days; data not shown. How it is done:
as §1, §2

Assay [3] has as its system MB004 cells. As to the kind of experiment: Cell cycle analysis (PI flow cytometry). The following applies: 3 μM for 3 days. As for the experimental part: (§3) Cell cycle analysis. […] Cells were then washed and stained with propidium iodide (PI) solution containing 25 μg/mL PI (Sigma), and 100 μg/mL Ribonuclease-A (Sigma) for 30 minutes in the dark. Flow cytometry was performed on BD FACS Canto II and cells were analyzed using FlowJo v.10 (FlowJo, USA) software.
Background: A flow cytometer gives signals particle by particle.

Assay [4] relates to HeLa cells. As to the kind of experiment: Cell cycle analysis (PI flow cytometry). How it is done:
as §3

The test system of assay [5] is telomerase-positive cells including brain tumor cells. As to the kind of experiment: Cell growth assay, panel of telomerase-positive cells. How it is done:
Cell growth and sphere formation assay. After dissociating primary neurospheres by TrypLE express (Gibco), single cells were seeded in respective growth media in 6-well plates and were incubated for one week at varying concentrations (0.5 to 10 μM) of 6-thio-dG or DMSO. Fresh culture media were added every three days. Viable cell numbers were determined by trypan blue exclusion method. For sphere formation assay, MB004 single cells were seeded in limited dilution (10 cells/well in 96-well plate) and treated with DMSO or 6-thio-dG. Sphere formation was monitored by microscopy.

pIC50: −log10 of the molar value.

As for `Nc1nc2c(ncn2[C@H]2C[C@H](O)[C@@H](CO)O2)c(=S)[nH]1` [6-thio-dG, 6-thio-2′-deoxyguanosine], the “cleaved caspase-3 signal (apoptosis)” value in assay [1] and in assay [2] was “increase in cleaved caspase-3 signal” each time. The cell cycle populations result was “increase in sub-G1 and G2/M cell populations” in assay [3]; “sharp increase in G2/M, >4n and sub-G1 cell populations” in assay [4] (continuous treatment, 3 μM). The “effect on cell cycle progression after drug removal” value in assay [4] (3 μM 3 days, then drug removed) was “persisted several days after drug withdrawal”. In addition, the cell cycle progression result in assay [4] (3 μM, three days) was “caused G2/M arrest”. Further, in assay [5] (0.5 to 10 μM every three days for one week), the cell growth entry was “inhibited cell growth in a dose-dependent manner”. For the same molecule, the pIC50 (as a rule, −log10 of the IC50, conventionally taken in molar units) in assay [5] (Homo sapiens, all telomerase-positive cells including brain tumor cells (Table S2)) is 5.84 to 6.85.
